Data taken from ChEMBL document CHEMBL4673218, “Kojyl cinnamate esters are peroxisome proliferator-activated receptor α/γ dual agonists” (Bioorg Med Chem, 2018).
Active and inactive are the calls of the source. The rule behind the calls is not given here.

Key:
[1] = Induction of adipogenesis in human AT-MSC assessed as adiponectin secretion at 30 uM in IDX medium incubated for 5 days by ELISA (reference value: 100 +/- 15 pg/ml); format: functional, Adipose tissue derived mesenchymal stem cell; details: time 5 day
[2] = Induction of adipogenesis in human AT-MSC assessed as adiponectin secretion in IDX medium incubated for 5 days by ELISA; format: functional; details: adipose tissue derived mesenchymal stem cell
[3] = tested on: Adipose tissue derived mesenchymal stem cell; test: Induction of adipogenesis in human AT-MSC cells assessed as increase in lipid droplet at 30 uM in IDX medium incubated for 5 days by Oil Red O staining based inverted phase microscopy relative to IDX control; format: functional; details: time 5.0 day
[4] = Induction of adipogenesis in human AT-MSC assessed as adiponectin secretion at 30 uM in IDX medium incubated for 5 days by ELISA relative to IDX control; format: functional, Adipose tissue derived mesenchymal stem cell; details: time 5 day
[5] = tested on: Adipose tissue derived mesenchymal stem cell; test: Induction of adipogenesis in human AT-MSC cells assessed as increase in intracellular lipid accumulation at 30 uM in IDX medium incubated for 5 days by Oil Red O staining based inverted phase microscopy relative to IDX control; format: functional; details: time 5.0 day
[6] = molecular target: T1, PPAR alpha/gamma (Homo sapiens) (UniProt P37231+Q07869); test: Agonist activity at PPARalpha/PPARgamma in human AT-MSC cells assessed as upregulation of HMGCR mRNA at 10 uM incubated for 3 days by qRT-PCR analysis; format: cell-based; details: Adipose tissue derived mesenchymal stem cell, filed as agonist, time 3.0 day
[7] = molecular target: T1, PPAR alpha/gamma (Homo sapiens); test: Agonist activity at PPARalpha/PPARgamma in human AT-MSC cells assessed as upregulation of FABP4 mRNA at 10 uM incubated for 3 days by qRT-PCR analysis; format: cell-based; details: Adipose tissue derived mesenchymal stem cell, filed as agonist, time 3.0 day
[8] = molecular target: T1, PPAR alpha/gamma (Homo sapiens); test: Agonist activity at PPARalpha/PPARgamma in human AT-MSC cells assessed as upregulation of adiponectin mRNA at 10 uM incubated for 3 days by qRT-PCR analysis; format: cell-based; details: Adipose tissue derived mesenchymal stem cell, filed as agonist, time 3.0 day
NHEK [9] = test: Inhibition of UVB-induced MMP1 level in human NHEK cells at 10 uM incubated for 24 hrs by ELISA; format: functional, cell-based
NHEK [10] = test: Inhibition of UVB-induced PGE2 level in human NHEK cells at 10 uM incubated for 24 hrs by ELISA; format: functional, cell-based
NHEK [11] = test: Inhibition of UVB-induced MMP1 mRNA in human NHEK cells at 10 uM incubated for 24 hrs by qRT-PCR analysis; format: functional, cell-based
NHEK [12] = test: Inhibition of UVB-induced PTGS2 mRNA in human NHEK cells at 10 uM incubated for 24 hrs by qRT-PCR analysis; format: functional, cell-based
[13] = molecular target: T1, PPAR alpha/gamma (Homo sapiens); test: Agonist activity at PPARalpha/PPARgamma in human NHEK cells assessed as upregulation of FASN mRNA at 10 uM incubated for 3 days by qRT-PCR analysis; format: cell-based; details: time 3.0 day
[14] = molecular target: T1, PPAR alpha/gamma (Homo sapiens); test: Agonist activity at PPARalpha/PPARgamma in human NHEK cells assessed as upregulation of ACACB mRNA at 10 uM incubated for 3 days by qRT-PCR analysis; format: cell-based; details: time 3.0 day
[15] = molecular target: T1, PPAR alpha/gamma (Homo sapiens); test: Agonist activity at PPARalpha/PPARgamma in human NHEK cells assessed as upregulation of HMGCR mRNA at 10 uM incubated for 3 days by qRT-PCR analysis; format: cell-based; details: time 3.0 day
[16] = molecular target: T1, PPAR alpha/gamma (Homo sapiens); test: Agonist activity at PPARalpha/PPARgamma in human AT-MSC cells assessed as upregulation of FADS2 mRNA at 10 uM incubated for 3 days by qRT-PCR analysis; format: cell-based; details: Adipose tissue derived mesenchymal stem cell, filed as agonist, time 3.0 day
[17] = molecular target: T1, PPAR alpha/gamma (Homo sapiens); test: Agonist activity at PPARalpha/PPARgamma in human AT-MSC cells assessed as upregulation of SCD1 mRNA at 10 uM incubated for 3 days by qRT-PCR analysis; format: cell-based; details: Adipose tissue derived mesenchymal stem cell, filed as agonist, time 3.0 day
[18] = molecular target: T1, PPAR alpha/gamma (Homo sapiens); test: Agonist activity at PPARalpha/PPARgamma in human AT-MSC cells assessed as upregulation of FASN mRNA at 10 uM incubated for 3 days by qRT-PCR analysis; format: cell-based; details: Adipose tissue derived mesenchymal stem cell, time 3.0 day
[19] = molecular target: T1, PPAR alpha/gamma (Homo sapiens); test: Agonist activity at PPARalpha/PPARgamma in human AT-MSC cells assessed as upregulation of ACACB mRNA at 10 uM incubated for 3 days by qRT-PCR analysis; format: cell-based; details: Adipose tissue derived mesenchymal stem cell, time 3.0 day
[20] = molecular target: T1, PPAR alpha/gamma (Homo sapiens); test: Agonist activity at PPARalpha/PPARgamma in human AT-MSC cells assessed as upregulation of HMGCS2 mRNA at 10 uM incubated for 3 days by qRT-PCR analysis; format: cell-based; details: Adipose tissue derived mesenchymal stem cell, filed as agonist, time 3.0 day
NHEK [21] = test: Inhibition of UVB-induced MMP1 level in human NHEK cells at 1 uM incubated for 24 hrs by ELISA; format: functional, cell-based
NHEK [22] = test: Inhibition of UVB-induced PGE2 level in human NHEK cells at 1 uM incubated for 24 hrs by ELISA; format: functional, cell-based
NHEK [23] = test: Inhibition of UVB-induced MMP1 mRNA in human NHEK cells at 1 uM incubated for 24 hrs by qRT-PCR analysis; format: functional, cell-based
NHEK [24] = test: Inhibition of UVB-induced PTGS2 mRNA in human NHEK cells at 1 uM incubated for 24 hrs by qRT-PCR analysis; format: functional, cell-based
[25] = Induction of adipogenesis in human AT-MSC assessed as adiponectin secretion at 300 uM in IDX medium incubated for 5 days by ELISA (reference value: 100 +/- 15 pg/ml); format: functional, Adipose tissue derived mesenchymal stem cell; details: time 5 day
[26] = molecular target: T2, Peroxisome proliferator-activated receptor gamma (Homo sapiens) (UniProt P37231); test: (§1) Binding affinity to human recombinant PPARgamma by Cheng-Prusoff equation based competitive binding TR-FRET assay; details: filed as agonist
T2 sequence (whole entry): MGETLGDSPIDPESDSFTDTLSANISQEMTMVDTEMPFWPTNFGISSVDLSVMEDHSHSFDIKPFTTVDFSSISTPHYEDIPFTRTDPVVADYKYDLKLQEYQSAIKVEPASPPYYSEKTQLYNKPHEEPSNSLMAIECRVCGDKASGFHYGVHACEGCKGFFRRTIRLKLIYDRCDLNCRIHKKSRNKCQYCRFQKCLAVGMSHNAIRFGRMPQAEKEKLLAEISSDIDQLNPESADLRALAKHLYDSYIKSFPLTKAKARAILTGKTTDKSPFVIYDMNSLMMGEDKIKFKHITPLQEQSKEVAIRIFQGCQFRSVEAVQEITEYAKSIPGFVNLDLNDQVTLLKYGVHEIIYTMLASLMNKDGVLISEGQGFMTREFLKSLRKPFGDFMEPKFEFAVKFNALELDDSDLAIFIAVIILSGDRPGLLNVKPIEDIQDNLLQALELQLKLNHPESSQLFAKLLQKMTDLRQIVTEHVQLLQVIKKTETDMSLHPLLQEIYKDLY

[27] = molecular target: T3, Peroxisome proliferator-activated receptor gamma (Homo sapiens, UniProt P37231); test: as §1
T3 sequence (P37231 whole entry): T2 sequence (whole entry)

[28] = molecular target: T4, Peroxisome proliferator-activated receptor alpha (Homo sapiens) (UniProt Q07869); test: (§2) Binding affinity to human recombinant PPARalpha by Cheng-Prusoff equation based competitive binding TR-FRET assay; details: filed as agonist
T4 sequence (whole entry): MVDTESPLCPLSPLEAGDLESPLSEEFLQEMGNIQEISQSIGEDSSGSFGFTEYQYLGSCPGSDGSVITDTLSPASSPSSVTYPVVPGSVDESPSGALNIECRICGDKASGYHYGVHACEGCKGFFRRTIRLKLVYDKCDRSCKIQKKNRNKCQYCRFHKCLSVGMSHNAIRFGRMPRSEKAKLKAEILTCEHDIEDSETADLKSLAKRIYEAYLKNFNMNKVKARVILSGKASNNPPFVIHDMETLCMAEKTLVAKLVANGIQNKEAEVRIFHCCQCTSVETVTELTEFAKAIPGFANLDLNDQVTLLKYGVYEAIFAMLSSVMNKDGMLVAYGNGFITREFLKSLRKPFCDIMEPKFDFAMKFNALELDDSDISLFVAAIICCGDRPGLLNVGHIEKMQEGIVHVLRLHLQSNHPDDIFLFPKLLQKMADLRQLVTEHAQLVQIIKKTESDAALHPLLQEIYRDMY

[29] = molecular target: T5, Peroxisome proliferator-activated receptor alpha (Homo sapiens, UniProt Q07869); test: as §2
T5 sequence (Q07869 whole entry): T4 sequence (whole entry)

[30] = molecular target: T1, PPAR alpha/gamma (Homo sapiens); test: Agonist activity at PPARalpha/PPARgamma in human NHEK cells assessed as upregulation of SCD1 mRNA at 10 uM incubated for 3 days by qRT-PCR analysis; format: cell-based; details: filed as agonist, time 3.0 day
[31] = molecular target: T1, PPAR alpha/gamma (Homo sapiens); test: Agonist activity at PPARalpha/PPARgamma in human NHEK cells assessed as upregulation of FADS1 mRNA at 10 uM incubated for 3 days by qRT-PCR analysis; format: cell-based; details: filed as agonist, time 3.0 day
[32] = molecular target: T1, PPAR alpha/gamma (Homo sapiens); test: Agonist activity at PPARalpha/PPARgamma in human NHEK cells assessed as upregulation of HMGCS2 mRNA at 10 uM incubated for 3 days by qRT-PCR analysis; format: cell-based; details: filed as agonist, time 3.0 day
[33] = molecular target: T1, PPAR alpha/gamma (Homo sapiens); test: Agonist activity at PPARalpha/PPARgamma in human NHEK cells assessed as upregulation of FADS2 mRNA at 10 uM incubated for 3 days by qRT-PCR analysis; format: cell-based; details: filed as agonist, time 3.0 day

## COc1cc(OC)c(/C=C/C(=O)OCc2cc(=O)c(O)co2)c(OC)c1
[1]
  Activity: 87 pg/mL

## COc1ccccc1/C=C/C(=O)OCc1cc(=O)c(O)co1
[2]
  EC50: 20.6 µM
[3]
  Activity: Active
[4]
  fold change (FC): 2.21
[5]
  Activity: Active
[1]
  Activity: 221 pg/mL

## COc1ccc(/C=C/C(=O)OCc2cc(=O)c(O)co2)cc1
[1]
  Activity: 138 pg/mL

## COc1cc(OC)c(OC)cc1/C=C/C(=O)OCc1cc(=O)c(O)co1
[1]
  Activity: 103 pg/mL

## Cc1cccc(Nc2cc(Cl)nc(SCC(=O)O)n2)c1C
[6]
  Activity: Active
[7]
  Activity: Active
[8]
  Activity: Active
NHEK [9]
  inhibition: Active
NHEK [10]
  inhibition: Active
NHEK [11]
  inhibition: Active
NHEK [12]
  inhibition: Active
[13]
  Activity: inactive
[14]
  Activity: inactive
[15]
  Activity: inactive
[16]
  Activity: Active
[17]
  Activity: Active
[18]
  Activity: inactive
[19]
  Activity: inactive
[20]
  fold change (FC): 4.53

## O=C(/C=C/c1ccc2c(c1)OCO2)OCc1cc(=O)c(O)co1
[1]
  Activity: 164 pg/mL

## COc1cccc(/C=C/C(=O)OCc2cc(=O)c(O)co2)c1
[2]
  EC50: 36.6 µM
[3]
  Activity: Active
[4]
  fold change (FC): 2.65
[5]
  Activity: Active
[1]
  Activity: 265 pg/mL

## COc1ccc(/C=C/C(=O)OCc2cc(=O)c(O)co2)cc1OC
[1]
  Activity: 120 pg/mL

## COc1ccc(/C=C/C(=O)OCc2cc(=O)c(O)co2)c(OC)c1OC
[1]
  Activity: 137 pg/mL

## Cc1c(C)c2c(c(C)c1O)CCC(C)(COc1ccc(CC3SC(=O)NC3=O)cc1)O2 (configuration not stated) [TROGLITAZONE]
[2]
  EC50: 0.86 µM
NHEK [21]
  inhibition: Active
NHEK [22]
  inhibition: inactive
NHEK [23]
  inhibition: Active
NHEK [24]
  inhibition: inactive

## CC(=O)Oc1ccccc1C(=O)O [ASPIRIN]
[25]
  Activity: 197 pg/mL

## COc1cc(/C=C/C(=O)OCc2cc(=O)c(O)co2)cc(OC)c1OC
[1]
  Activity: 137 pg/mL

## COc1cccc(/C=C/C(=O)OCc2cc(=O)c(O)co2)c1OC
[6]
  Activity: Active
[7]
  Activity: Active
[8]
  Activity: Active
[26]
  Activity: Dose-dependent effect
[27]
  Ki: 6.7 µM
[28]
  Activity: Dose-dependent effect
[29]
  Ki: 8 µM
[2]
  EC50: 14.8 µM
[3]
  Activity: Active
[4]
  fold change (FC): 2.81
[5]
  Activity: Active
[1]
  Activity: 281 pg/mL
NHEK [9]
  inhibition: Active
NHEK [10]
  inhibition: Active
NHEK [11]
  inhibition: Active
NHEK [12]
  inhibition: Active
[13]
  Activity: inactive
[14]
  Activity: inactive
[15]
  Activity: inactive
[30]
  Activity: Active
[31]
  Activity: Active
[32]
  Activity: Active
[33]
  Activity: Active
[16]
  Activity: Active
[17]
  Activity: Active
[18]; filed as agonist
  Activity: Active
[19]; filed as agonist
  Activity: Active
[20]
  Activity: Active

## COc1cc(/C=C/C(=O)OCc2cc(=O)c(O)co2)cc(OC)c1
[1]
  Activity: 67 pg/mL
